Data taken from patent publication US20240293416A1, “TREATMENT OF LIVER DISORDERS WITH A THR-ß AGONIST” (Terns Pharmaceuticals, Inc., priority 2021, published 2024).

What was measured:
mouse NASH model = assay: High fat diet + CCl4 mouse NASH model; format: in vivo, C57BL/6J mice
Method: C57BL/6J mice were fed a high fat diet for 10 weeks to induce obesity (>38 g BW). Obese mice were injected intraperitoneally (i.p.) twice a week for four weeks with 0.5 μl/g 25% CCl4 (formulated in olive oil) to induce fibrosis, and one group of normal BW mice were injected i.p. twice a week for four weeks with olive oil to serve as a healthy control. […] On CCl4 dosing days, CCl4 was administered at 4 hours post compound or vehicle dosing. On day 27, all animals were fasted for about 16 hours before terminal euthanasia. On day 28, all animals were sacrificed and various biological parameters were analyzed. Total body, liver, heart and brain weight were measured and changes in liver and heart weight were normalized using brain weight.
Liver samples were collected for whole transcriptome analysis by RNA sequencing (RNAseq). RNAseq library (n=5 per group) preparation and sequencing was performed using Illumina standard protocols. Alignment of sequencing reads was performed using STAR aligner software and read counts were estimated using RSEM. Differentially expressed genes (compared to vehicle-treated NASH control mice) were determined using EdgeR software. Gene ontology analysis was performed using Advaita software with fold-change and adjusted p-value cutoffs of >1.5 and <0.05, respectively. Gene ontologies were derived from the Gene Ontology Consortium database (2019 Apr. 26) (Ashburner et al., Gene ontology: Tool for the unification of biology. Nature Genetics 25(1): 25-9 (2000); Gene Ontology Consortium, Creating the Gene Ontology Resource: Design and Implementation. Genome Research 11: 1425-1433 (2001)).

[1] = Multiple ascending doses in healthy subjects with elevated LDL-c: safety; format: in vivo, human; details: 1, 3, 6 or 10 mg once daily for 14 days
Excerpt: Objectives: Assess the overall safety and tolerability of multiple ascending doses of Compound 1 in healthy subjects with elevated LDL-c.
Primary Endpoints: Treatment-emergent adverse events (TEAEs), vital signs, clinical laboratory parameters, and electrocardiogram (ECG) monitoring.

[2] = Single ascending dose trial: adverse event and safety monitoring; format: in vivo, human
Method: A single-ascending dose clinical trial of Compound 1 (potassium salt) was performed.

BCRP = target: T1, BCRP (Homo sapiens, UniProt Q9UNQ0); assay: In vitro transporter inhibition, BCRP; format: in vitro ADME
T1 sequence (Q9UNQ0 1-655): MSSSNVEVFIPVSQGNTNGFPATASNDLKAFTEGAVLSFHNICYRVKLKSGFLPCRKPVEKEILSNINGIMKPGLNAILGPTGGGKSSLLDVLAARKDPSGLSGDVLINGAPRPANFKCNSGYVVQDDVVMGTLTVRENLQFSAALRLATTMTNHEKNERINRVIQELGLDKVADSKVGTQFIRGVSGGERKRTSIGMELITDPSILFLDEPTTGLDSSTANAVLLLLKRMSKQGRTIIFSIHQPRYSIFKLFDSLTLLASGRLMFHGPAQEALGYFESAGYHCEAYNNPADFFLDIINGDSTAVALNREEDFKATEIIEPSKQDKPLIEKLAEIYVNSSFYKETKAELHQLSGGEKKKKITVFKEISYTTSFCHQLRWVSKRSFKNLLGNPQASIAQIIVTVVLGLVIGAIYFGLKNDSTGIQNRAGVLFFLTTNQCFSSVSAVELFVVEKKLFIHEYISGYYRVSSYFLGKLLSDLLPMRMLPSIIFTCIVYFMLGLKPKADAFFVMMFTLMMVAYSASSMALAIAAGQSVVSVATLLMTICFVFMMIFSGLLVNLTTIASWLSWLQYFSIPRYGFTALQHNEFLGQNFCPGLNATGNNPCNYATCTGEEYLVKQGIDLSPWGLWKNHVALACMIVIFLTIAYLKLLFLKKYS

P-gp = P-gp (Homo sapiens, UniProt P08183); assay: In vitro transporter inhibition, P-gp; format: in vitro ADME
Sequence of P-gp (P08183 whole entry): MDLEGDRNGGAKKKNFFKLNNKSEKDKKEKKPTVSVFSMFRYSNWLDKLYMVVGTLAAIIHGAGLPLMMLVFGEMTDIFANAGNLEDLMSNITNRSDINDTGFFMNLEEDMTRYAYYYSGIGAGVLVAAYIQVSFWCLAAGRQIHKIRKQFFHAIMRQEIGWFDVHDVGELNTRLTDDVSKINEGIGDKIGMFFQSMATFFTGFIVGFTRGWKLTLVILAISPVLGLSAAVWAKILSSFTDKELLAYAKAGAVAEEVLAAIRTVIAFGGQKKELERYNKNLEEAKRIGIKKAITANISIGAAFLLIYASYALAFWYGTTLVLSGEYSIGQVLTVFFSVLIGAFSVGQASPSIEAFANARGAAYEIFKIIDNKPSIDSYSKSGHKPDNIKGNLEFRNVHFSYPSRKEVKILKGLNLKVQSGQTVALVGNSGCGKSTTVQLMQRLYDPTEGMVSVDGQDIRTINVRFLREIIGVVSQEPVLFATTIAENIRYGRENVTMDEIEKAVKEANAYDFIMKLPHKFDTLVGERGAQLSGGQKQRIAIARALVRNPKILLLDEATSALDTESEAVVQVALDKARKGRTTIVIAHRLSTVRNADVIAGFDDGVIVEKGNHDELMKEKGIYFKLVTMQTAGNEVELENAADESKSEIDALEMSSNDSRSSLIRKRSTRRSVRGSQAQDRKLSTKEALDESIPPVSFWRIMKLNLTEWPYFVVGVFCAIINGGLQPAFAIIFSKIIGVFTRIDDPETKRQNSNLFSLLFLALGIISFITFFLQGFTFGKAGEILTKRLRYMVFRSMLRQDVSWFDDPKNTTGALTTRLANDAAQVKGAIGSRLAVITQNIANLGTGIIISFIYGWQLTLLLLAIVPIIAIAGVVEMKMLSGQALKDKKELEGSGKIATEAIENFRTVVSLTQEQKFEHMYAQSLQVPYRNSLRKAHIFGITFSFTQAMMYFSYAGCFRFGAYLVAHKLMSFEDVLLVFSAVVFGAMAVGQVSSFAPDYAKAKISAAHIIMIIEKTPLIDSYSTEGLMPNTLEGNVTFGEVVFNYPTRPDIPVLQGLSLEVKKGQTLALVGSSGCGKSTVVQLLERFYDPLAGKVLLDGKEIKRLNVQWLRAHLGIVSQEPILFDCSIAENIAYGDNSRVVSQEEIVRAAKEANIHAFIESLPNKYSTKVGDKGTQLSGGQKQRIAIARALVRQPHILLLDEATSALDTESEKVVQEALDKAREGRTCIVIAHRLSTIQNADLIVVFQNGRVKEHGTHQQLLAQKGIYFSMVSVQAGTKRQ

[3] = test system: biopsy-confirmed DIO-NASH mice; assay: DIO-GAN NASH mice: body weight, organ weight, body composition; format: in vivo, C57BL/6JRj mice; details: doses per Table 16
Excerpt: C57BL/6JRj male mice (n=138) were fed the Gubra Amylin NASH (GAN) diet (40% fat, 22% fructose, 2% cholesterol [D09100310, Research Diets]) or lean chow diet for 35 weeks before treatment start. Prior to treatment all animals underwent liver biopsy for histological confirmation (steatosis score ≥2 and fibrosis stage ≥1) and stratification using the nonalcoholic fatty liver disease (NAFLD) activity scoring (NAS) and fibrosis staging system. The diet-induced obese mice on GAN diet (DIO-GAN) were randomized to 8 treatment groups (Table 16) based on percent-area of picrosirius red (PSR) staining. […] Vehicle-dosed lean chow-fed controls served as healthy controls (n=10). Mice were maintained on their respective diets (GAN or lean chow) for the duration of the study. Within-subject comparisons (pre-vs. post-treatment) were performed for liver biopsy histopathological scores. Terminal quantitative endpoints included plasma/liver biochemistry, liver histomorphometry, and liver transcriptomic analysis by RNAseq.
The diet-induced obese, Gubra Amylin NASH model (DIO-GAN) recapitulates many of the histopathological features of human NASH (Hansen 2020). […] To induce NASH disease, C57BL/6JRj mice were maintained a on diet high in fat, cholesterol, and fructose (GAN diet) for >35 weeks. Prior to therapeutic intervention, mice were biopsied to assess NASH disease and fibrosis severity; mice with a steatosis score <2 and fibrosis stage <1 were excluded from the study. DIO-GAN mice were then randomized into 8 treatment groups (n=16 per group) based on the percent fractional area of Picrosirius red (PSR) staining of the pre-treatment biopsy as well as body fat tissue mass determined by whole body Echo-magnetic resonance imaging (EchoMRI). […] DIO-GAN mice administered vehicle by oral gavage once daily served as a control. Mice were treated for a total of 12 weeks and were maintained on GAN diet throughout the study. Lean mice (n=10), maintained on normal chow diet throughout the study served as healthy controls.
Body composition was determined at baseline (Week-1) and Week 11 of the study by whole body EchoMRI to determine the relative levels lean and fat tissue as a percentage of body weight. Baseline levels of lean and fat tissue were well balanced across treatment groups (FIGS. 33A and 33B).

N#Cc1nn(-c2cc(Cl)c(Oc3n[nH]c(=O)c4ccccc34)c(Cl)c2)c(=O)[nH]c1=O [Compound 1, 2-(3,5-dichloro-4-((4-oxo-3,4-dihydrophthalazin-1-yl)oxy)phenyl)-3,5-dioxo-2,3,4,5-tetrahydro-1,2,4-triazine-6-nitrile]
liver fibrosis (histology) (mouse NASH model; 3 and 10 mpk, 28 days): significantly reduced liver fibrosis
liver inflammation (histology) (mouse NASH model; 28 days): trend in inflammation reduction
liver steatosis (histology) (mouse NASH model; all doses tested, 28 days): significantly reduced steatosis at all doses tested
serum total cholesterol, triglycerides and ALT (mouse NASH model; all doses tested, 28 days): significantly reduced
expression of genes associated with collagen extracellular matrix and hepatic stellate cell activation (mouse NASH model; liver RNAseq vs NASH control mice): significant effect
liver/brain weight (mouse NASH model; orally once a day for 28 days): significantly reduced
total body weight or heart/brain weight (mouse NASH model; orally once a day for 28 days): no effect
steady state plasma AUC0-∞ sufficient to ensure efficacy (mouse NASH model; preclinical animal models): approximately 3,320 ng*hg/mL
ALT increase to ≥2×ULN [1]: No subject
free T4 [1]: Dose-dependent declines
safety and tolerability [1]: generally safe and well-tolerated
severity of AEs [1]: mild to moderate with no apparent dose relationship
Heart rates ([2]; 24 hours after single dose): remained stable and within the normal range
plasma AUC0-∞ without any significant side effects ([2]; single ascending dose studies): ≤ 50,000 ng*hg/mL
overall safety and tolerability ([2]; single ascending doses up to 60 mg): overall safe and well-tolerated
TSH, free T3, and free T4 levels ([2]; single doses 3-60 mg): remained within the normal range
bilirubin levels above the normal range ([2]; single doses 3-60 mg): no subjects
cardiac biomarkers (troponin I, CK-MB) or other clinical safety tests ([2]; single doses 3-60 mg): no notable changes
cardiac related AEs (e.g., tachycardia, arrythmias) ([2]; single doses 3-60 mg): No cardiac related AEs
increases in ALT more than 2-times ULN ([2]; single doses 3-60 mg): No subjects
severity of adverse events ([2]; single doses 3-60 mg): mild or moderate in severity
vital signs or ECG parameters ([2]; single doses 3-60 mg): no remarkable changes

Cn1cc(C(=O)O)c2ccc(C3CCC(OCc4c(-c5c(Cl)cccc5Cl)noc4C4CC4)CC3)cc21 (stereo not shown) [Compound 2]
IC50 (BCRP): 4.39 µM
IC50 (P-gp): 3.92 µM
body weight at the end of study vs DIO-GAN vehicle control ([3]; PO QD 12 weeks): significantly lower
body weight during the study ([3]; PO QD 12 weeks): decreased body weight
fat tissue (% BW, EchoMRI) ([3]; Week 11): reduced levels of fat tissue
relative lean tissue mass (EchoMRI) ([3]; Week 11): significant increases
